Like-named read-outs stand apart in the source and are kept apart here. Values belong to the compound of their own block, whether it stands above or below them.
Assays:
[1] = test system: recurrent malignant glioma patients; assay: Phase I dose escalation: MTD, DLT and toxicity; conditions: all patients, with imatinib and hydroxyurea
[2] = test system: PDGFRβ; conditions: cited from earlier work
[3] = Plasma pharmacokinetics of vatalanib; type: in vivo, human; conditions: for Tmax: human, plasma, oral, tmax Mean(Range)
[4] = test system: recurrent GBM patients; conditions: single agent; cited from earlier work
[5] = Plasma pharmacokinetics of hydroxyurea; conditions: for AUC0−12 / 0−12 Mean(Range) / Cl/F Mean(Range) / Cmax/D Mean(Range) / t1/2 Mean(Range) / tmax Mean(Range): hydroxyurea 500 mg twice-a-day
[6] = test system: patients with newly diagnosed glioblastoma (GBM); conditions: radiotherapy plus temozolomide; cited from earlier work
[7] = for tmax Mean(Range): stratum A (no EIAEDs, N=14), imatinib 400 mg/day
[8] = stratum B (on EIAEDs, N=8), day 7 (vatalanib alone, steady state)
[9] = stratum B (on EIAEDs, N=8), day 35 (with imatinib and hydroxyurea)
[10] = stratum A (no EIAEDs, N=15), day 7 (vatalanib alone, steady state)
[11] = stratum A (no EIAEDs, N=15), day 35 (with imatinib and hydroxyurea)
[12] = stratum A (no EIAEDs, N=14), day 8 of cycle 1
[13] = stratum A (no EIAEDs, N=14), day 35 of cycle 1
[14] = stratum B (on EIAEDs, N=6), day 8 of cycle 1
[15] = stratum B (on EIAEDs, N=6), day 35 of cycle 1

Compound: Clc1ccc(Nc2nnc(Cc3ccncc3)c3ccccc23)cc1 [vatalanib]
recommended vatalanib dose ([1]; irrespective of EIAEDs): 1000 mg twice-a-day
MTD of vatalanib ([1]; continuous daily schedule): 1000 mg twice-a-day
PDGFRβ IC50 relative to that of imatinib [2]: approximately twice
effect of vatalanib dose on vatalanib pharmacokinetic parameters ([3]; 500 to 1250 mg twice daily): no significant effect
decrease of vatalanib Cmax/D by use of EIAEDs ([3]; day 7): approximately 3 fold
effect of EIAEDs on vatalanib plasma t1/2 ([3]; day 7): not significantly affecting
increase of vatalanib CL/F by use of EIAEDs ([3]; day 7): approximately 3 fold
increase of vatalanib V/F by use of EIAEDs ([3]; day 7): more than 3 fold
Tmax [3, 8]: 1.79 h
Tmax [3, 9]: 2.13 h
AUC0−12 / 0−12 Mean(Range) [3, 10]: 11.1(2.23−16.1) ng/mL*h/mg
Cl/F Mean(Range) [3, 10]: 122(62.0−448) L/h
Cmax/D Mean(Range) [3, 10]: 3.12(0.72−5.03) ng/mL/mg
AUC0−12 / 0−12 Mean(Range) [3, 11]: 10.4(3.28−25.5) ng/mL*h/mg
Cl/F Mean(Range) [3, 11]: 137(39.3−305) L/h
Cmax/D Mean(Range) [3, 11]: 2.82(0.82−7.38) ng/mL/mg
AUC0−12 / 0−12 Mean(Range) [3, 8]: 4.51(1.31−12.1) ng/mL*h/mg
Cl/F Mean(Range) [3, 8]: 377(82.3−765) L/h
Cmax/D Mean(Range) [3, 8]: 1.15(0.40−2.46) ng/mL/mg
AUC0−12 / 0−12 Mean(Range) [3, 9]: 6.75(0.73−17.7) ng/mL*h/mg
Cl/F Mean(Range) [3, 9]: 368(56.5−1371) L/h
Cmax/D Mean(Range) [3, 9]: 1.91(0.16−6.52) ng/mL/mg

Compound: COc1cc2c(Oc3ccc4[nH]c(C)cc4c3F)ncnc2cc1OCCCN1CCCC1 [cedarinib]
median PFS [4]: 16 weeks
radiographic response rate [4]: 50%

effect of EIAEDs or time on hydroxyurea pharmacokinetics ([5]; in vivo): no relevant effect
AUC0−12 / 0−12 Mean(Range) [5, 12]: 50.4(9.50−91.1) ng/mL*h/mg
Cl/F Mean(Range) [5, 12]: 15.2(5.50−52.5) L/h
Cmax/D Mean(Range) [5, 12]: 18.5(6.80−29.6) ng/mL/mg
t1/2 Mean(Range) [5, 12]: 4.84(1.60−12.5) h
tmax Mean(Range) [5, 12]: 1.29(0.50−2.00) h
AUC0−12 / 0−12 Mean(Range) [5, 13]: 41.7(13.0−84.5) ng/mL*h/mg
Cl/F Mean(Range) [5, 13]: 15.4(5.90−38.4) L/h
Cmax/D Mean(Range) [5, 13]: 19.4(5.60−32.6) ng/mL/mg
t1/2 Mean(Range) [5, 13]: 3.29(1.40−6.80) h
tmax Mean(Range) [5, 13]: 1.30(0.50−4.00) h
AUC0−12 / 0−12 Mean(Range) [5, 14]: 37.38(18.1−60.4) ng/mL*h/mg
Cl/F Mean(Range) [5, 14]: 16.4(8.3−27.6) L/h
Cmax/D Mean(Range) [5, 14]: 16.5(7.60−35.0) ng/mL/mg
t1/2 Mean(Range) [5, 14]: 3.5(2.70−5.40) h
tmax Mean(Range) [5, 14]: 1.80(0.50−4.00) h
AUC0−12 / 0−12 Mean(Range) [5, 15]: 41.4(17.0−70.1) ng/mL*h/mg
Cl/F Mean(Range) [5, 15]: 15.4(7.10−29.4) L/h
Cmax/D Mean(Range) [5, 15]: 19.0(7.80−31.4) ng/mL/mg
t1/2 Mean(Range) [5, 15]: 7.12(2.50−21.5) h
tmax Mean(Range) [5, 15]: 0.90(0.50−1.50) h
Compound: NC(=O)NO [Hydroxyurea]

Compound: Cn1nnc2c(C(N)=O)ncn2c1=O [temozolomide]
median progression-free survival (PFS) [6]: 6.9 months

tmax Mean(Range) ([7]; day 8 of cycle 1): 3.43(2.00−6.00) h
tmax Mean(Range) ([7]; day 35 of cycle 1): 3.57(1.00−8.00) h
Compound: Cc1ccc(NC(=O)c2ccc(CN3CCNCC3)cc2)cc1Nc1nccc(-c2cccnc2)n1 [CGP74588]

Compound: Cc1ccc(NC(=O)c2ccc(CN3CCN(C)CC3)cc2)cc1Nc1nccc(-c2cccnc2)n1 [Imatinib]
effect of hydroxyurea on imatinib pharmacokinetics ([7]; fully apparent at day 35, more pronounced in patients taking EIAEDs): increase in Cmax/D and decreases in CL/F and V/F
